Data: patent publication US7136698B2 (priority 1996, dated 2006)

Assay: Current density and goserelin flux: constant current electrotransport delivery
Format: in vivo, human
Protocol: This study was undertaken to evaluate the relationship between current density and drug flux in the transdermal electrotransport delivery of goserelin. The study involved the application of electrotransport devices, applying constant current, to 12 normal male volunteers for a duration of 8 hours.
The two electrotransport treatment regimens in this study differed only in applied current density levels. The electrotransport devices delivered goserelin through the skin from polyvinyl alcohol (PVOH)-based donor hydrogels having a skin-contact surface area of 4 cm^2. The gels contained an aqueous goserelin solution. The current density levels used in this study were […]. After an 8 hour treatment period, the electrotransport devices were removed. The skin site was then washed to remove any residual goserelin. All 12 volunteers received each treatment seven days apart.
For each treatment, seven blood samples were taken over a 24 hour period commencing with the application of current from the electrotransport devices. Serum goserelin concentrations from each patient were used to calculate mean drug flux and the mean total amount of drug delivered.

## CC(C)C[C@H](NC(=O)[C@@H](COC(C)(C)C)NC(=O)[C@H](Cc1ccc(O)cc1)NC(=O)[C@H](CO)NC(=O)[C@H](Cc1c[nH]c2ccccc12)NC(=O)[C@H](Cc1cnc[nH]1)NC(=O)[C@@H]1CCC(=O)N1)C(=O)N[C@@H](CCCNC(=N)N)C(=O)N1CCC[C@H]1C(=O)NNC(N)=O [goserelin]
Applied current density 50 μA/cm^2, 8 hours
  average transdermal goserelin flux: 5.8 µg/h
Applied current density 100 μA/cm^2, 8 hours
  average transdermal goserelin flux: 21.6 µg/h
Current density rises from 50 to 100 μA/cm^2
  increase in drug flux: almost four-fold increase
